Data reported in PubChem BioAssay (NCI).
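Tested at 5 concentrations; 48 h exposure; 96-well plates; endpoints linearly interpolated, else capped at highest concentration. TGI: concentration producing complete growth inhibition.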

How the values were obtained:
Assay in all cases: inhibition of tumour cell growth, NCI panel, 48 h
UO-31 renal = tested on: UO-31 renal
NCI-H226 lung = tested on: NCI-H226 lung
UACC-62 melanoma = tested on: UACC-62 melanoma
CCRF-CEM leukemia = tested on: CCRF-CEM leukemia
TK-10 renal = tested on: TK-10 renal
COLO 205 colon = tested on: COLO 205 colon
SK-MEL-28 melanoma = tested on: SK-MEL-28 melanoma
LOX IMVI melanoma = tested on: LOX IMVI melanoma
LXFL 529 NSCLC = tested on: LXFL 529 NSCLC
HOP-92 NSCLC = tested on: HOP-92 NSCLC
XF 498 CNS = tested on: XF 498 CNS
SNB-19 CNS = tested on: SNB-19 CNS
HOP-18 NSCLC = tested on: HOP-18 NSCLC
SN12C renal = tested on: SN12C renal
IGROV1 ovarian = tested on: IGROV1 ovarian
U251 CNS = tested on: U251 CNS
A549 NSCLC = tested on: A549 NSCLC
MOLT-4 leukemia = tested on: MOLT-4 leukemia
DLD-1 colon = tested on: DLD-1 colon
SK-OV-3 ovarian = tested on: SK-OV-3 ovarian
UACC-257 melanoma = tested on: UACC-257 melanoma
DMS 273 small cell lung = tested on: DMS 273 small cell lung
M19-MEL melanoma = tested on: M19-MEL melanoma
NCI-H23 lung = tested on: NCI-H23 lung
SNB-75 CNS = tested on: SNB-75 CNS
HCT-15 colon = tested on: HCT-15 colon
HCT-116 colon = tested on: HCT-116 colon
OVCAR-5 ovarian = tested on: OVCAR-5 ovarian
RPMI-8226 leukemia = tested on: RPMI-8226 leukemia
OVCAR-3 ovarian = tested on: OVCAR-3 ovarian
K-562 leukemia = tested on: K-562 leukemia
SNB-78 CNS = tested on: SNB-78 CNS
SW-620 colon = tested on: SW-620 colon
SK-MEL-2 melanoma = tested on: SK-MEL-2 melanoma
SF-539 CNS = tested on: SF-539 CNS
OVCAR-8 ovarian = tested on: OVCAR-8 ovarian
M14 melanoma = tested on: M14 melanoma
MALME-3M melanoma = tested on: MALME-3M melanoma
DMS 114 small cell lung = tested on: DMS 114 small cell lung
SK-MEL-5 melanoma = tested on: SK-MEL-5 melanoma
KM12 colon = tested on: KM12 colon
NCI-H460 lung = tested on: NCI-H460 lung
SF-268 CNS = tested on: SF-268 CNS
NCI-H522 lung = tested on: NCI-H522 lung
EKVX NSCLC = tested on: EKVX NSCLC
ACHN renal = tested on: ACHN renal
HT29 colon = tested on: HT29 colon
RXF 393 renal = tested on: RXF 393 renal
A498 renal = tested on: A498 renal
KM20L2 colon = tested on: KM20L2 colon
CAKI-1 renal = tested on: CAKI-1 renal
786-0 renal = tested on: 786-0 renal
HOP-62 NSCLC = tested on: HOP-62 NSCLC
HCC-2998 colon = tested on: HCC-2998 colon
OVCAR-4 ovarian = tested on: OVCAR-4 ovarian
SF-295 CNS = tested on: SF-295 CNS
HL-60(TB) leukemia = tested on: HL-60(TB) leukemia
SR leukemia = tested on: SR leukemia

Measured: TGI

Cc1ccc(NC(=O)c2[nH]c(=S)nc(N)c2-c2ccccc2C)cc1C
not listed: HOP-62 NSCLC | HCC-2998 colon | OVCAR-4 ovarian | SF-295 CNS | HL-60(TB) leukemia | SR leukemia
> 100 µM: all other assays above

CC(=O)Nc1ccc(/C=C(\NC(=O)c2ccccc2)c2nc3ccc4c(c3[nH]2)C(=O)c2ccccc2C4=O)cc1
96.3 µM: A549 NSCLC
49.1 µM: RXF 393 renal
9.17 µM: UO-31 renal
49.3 µM: MOLT-4 leukemia
61.5 µM: SNB-75 CNS
not listed: KM12 colon | NCI-H460 lung | ACHN renal | HL-60(TB) leukemia | SR leukemia
> 100 µM: all other assays above

CC(=O)N1CCC2(C=Nc3ccccc32)CC1
not listed: UO-31 renal | NCI-H226 lung | SNB-19 CNS | SN12C renal | SF-268 CNS | NCI-H522 lung | RXF 393 renal | SR leukemia
> 100 µM: all other assays above

Cc1cc2c(cc1C)NC(=O)C(NC(=O)/C=C/c1ccccc1)C=N2 (stereo not given)
55.4 µM: KM12 colon
43.5 µM: HL-60(TB) leukemia
84.4 µM: SK-MEL-2 melanoma
31.1 µM: DMS 114 small cell lung
50.8 µM: HCT-116 colon
58 µM: SR leukemia
62.2 µM: K-562 leukemia
82.9 µM: UACC-257 melanoma
59.7 µM: RXF 393 renal
34.6 µM: COLO 205 colon
75.9 µM: RPMI-8226 leukemia
55.3 µM: LOX IMVI melanoma
26 µM: CCRF-CEM leukemia
99.6 µM: XF 498 CNS
66 µM: NCI-H522 lung
55.2 µM: OVCAR-3 ovarian
70.2 µM: U251 CNS
57.7 µM: MOLT-4 leukemia
19.6 µM: SW-620 colon
40.4 µM: HCT-15 colon
not listed: HOP-92 NSCLC | NCI-H23 lung | HT29 colon
> 100 µM: all other assays above
